For 88 compounds, melting point results are on record in a melting point compilation (Tetko et al.; mined from patent text by program, amines drawn as free bases though some values may be those of a salt).

The structures appear in SMILES notation.

Broadly, the melting point is the temperature of the solid-liquid transition. Regarding `CCCN(CCC)C(=O)Cc1c(-c2ccccc2)nn2cccnc12`, the melting point lay within 103 to 105 °C.

In turn, `Cc1cc(Cl)cc(C(=NCCC(=O)O)c2ccc(Cl)cc2)c1O` came in with a melting point of 138 °C.

`N#Cc1ccc(-c2cn(-c3ccc(I)cc3)c(SCc3ccccn3)n2)cc1` came in with a melting point of 180 to 184 °C.

In turn, `CNC(=O)NC(NC(=O)C(Cl)(Cl)Cl)C(Cl)(Cl)Cl` (stereo not drawn) showed a melting point of 209 to 210 °C.

Compound `CC1(C)Nc2cc(F)ccc2NC1=O` yielded a melting point of 148 to 149 °C.

In turn, `COc1cc(C(=O)O)c(-c2c(C(=O)O)ccc3c2OCO3)cc1OC` gave a melting point of 207 to 210 °C.

Regarding `CS(=O)(=O)Nn1c(=O)[nH]c2cc(C(F)(F)F)c(Oc3cccnc3)cc2c1=O`, the melting point was in the range of 194 to 196 °C.

In turn, `COC(=O)NCCNC(=O)c1cc(C)c(C(c2cc(F)ccc2F)S(=O)(=O)c2ccc(F)cc2)cn1` (stereo not drawn) gave a melting point of 167 to 169 °C.

Take `OCC(OC1CCCCO1)c1ccc2sccc2c1` (single isomer, unassigned; (-)): the melting point was 62 to 77 °C.

Consider `Cc1ccc(S(=O)(=O)Cc2ccc([N+](=O)[O-])cc2)cc1`, for which the melting point lay within 188 to 190 °C.

For `COC(=O)C(C)(N)Cc1c[nH]c2ccc(OC)cc12` (racemic), the melting point was in the range of 131 to 132 °C.

Regarding `CC1CC(c2cc3ccc(F)cc3s2)CCN1` (stereo not drawn), the melting point lay in the range of 34 to 37 °C.

Compound `O=C(OCCOCc1ccccc1)n1c(-c2cscn2)nc2ccccc21` registered a melting point of 93 to 95 °C.

On to `O=C(Nc1noc2ccccc12)N1CCN(c2nc(-c3ccccc3)ns2)CC1`, for which the melting point was in the range of 234 to 235 °C.

In turn, `CCCC(=O)NN=C(C)C1CCC=C(C)O1` (stereo not drawn) showed a melting point of 72.8 °C.

`O=C1c2cccc([N+](=O)[O-])c2OC12CC2` returned a melting point of 131 to 134 °C.

For `COc1ccc2c(c1)Sc1ccc(SC)cc1C(O)C2` (stereo not drawn), the melting point lay in the range of 122 to 124 °C.

`CCOC(C)c1cc2c(=O)n(NS(C)(=O)=O)c(=O)[nH]c2cc1C(F)(F)F` (stereo not drawn) yielded a melting point of 105 to 112 °C.

Take `Cc1[nH]c(-c2ccccc2)nc1C=O`: the melting point lay within 102 to 115 °C.

Take `CSc1nccc(-c2ccc(NC(=O)c3cc(F)cc(N4CCOCC4)c3)c3ccccc23)n1`: the melting point is 135 to 138 °C.

In turn, `CC(C)(C)OC(=O)C=C(c1ccc(C#N)cc1)n1ccnc1` gave a melting point of 151 to 153 °C.

Consider `CCCCc1nc2c(N)nc3ccccc3c2n1NCc1ccccc1`, for which the melting point is 159 to 160 °C.

In turn, `Clc1ccc(-c2ccc3nncn3c2)cc1` gave a melting point of 259 to 262 °C.

Take `O=C(Cn1nc(C(F)(F)F)cc1Cl)N1CCC(c2nc(C3=NOC(c4ccccc4)C3)cs2)CC1` (stereo not drawn): the melting point is 128 to 131 °C.

`COc1cc(C(=O)Nc2c(C)cc3cn(C(=O)OC(C)(C)C)nc3c2C(=O)NC(C)C)n(N2C=CC=C(Cl)C2)n1` had a melting point of 161 to 162 °C.

The compound `Cc1cc2c(cc1N(C)CC(C)C)N=C(c1cccc(-n3ncnc3CO)c1)CC(=O)N2` yielded a melting point of 191 °C.

For `CC(O)c1ccc(Cc2cn(-c3ccc(F)cc3)c3ncccc3c2=O)cc1` (stereo not drawn), the melting point was in the range of 197 to 198 °C.

With `CCCCCCCCCCCCS(=O)(=O)Nc1cc(-c2cc3cc(F)c(F)cc3[nH]2)ccc1OC`, the melting point was 148 to 149 °C.

For `COC(=O)N1Cc2cc(OC)ccc2C(Cc2c(Cl)cncc2Cl)=N1`, the melting point was 184 to 186 °C.

`FC(F)C(F)(F)Sc1nc(-c2ccc(Cl)c(Cl)c2)c(-c2cccs2)[nH]1` displayed a melting point of 178 to 180 °C.

As to `O=C(O)C(CC(=O)N1CCOCC1)NS(=O)(=O)c1ccc(-c2ccc(Cl)cc2)cc1` (stereo not drawn), the melting point fell in the range of 144 to 146 °C.

Compound `O=C1OCCN1CCC1=NCCN1` showed a melting point of 118 to 123 °C.

With `O=c1[nH]cc(-c2cccc(Cl)c2)c2ncccc12`, the melting point came to 252 °C.

The compound `COc1cc(COc2nn(-c3ccccc3)cc2/C=C/c2csc(C(C)(C)C)n2)ccc1OCc1nc(-c2ccc(CC(=O)O)cc2)oc1C` returned a melting point of 113 to 115 °C.

On to `CC(C)(Cl)C(=O)c1ccc(C(=O)c2ccc(C(=O)C(C)(C)Cl)cc2)cc1`, for which the melting point was in the range of 82 to 83 °C.

Regarding `Cc1c(F)cccc1NS(=O)(=O)c1cc(S(=O)(=O)Nc2cccc(F)c2C)c2cc(O)ccc2c1`, the melting point lay in the range of 128 to 130 °C.

On to `CC1(C)NC(=O)N(c2ccc([N+](=O)[O-])c(C(F)(F)F)c2)C1=O`, for which the melting point turned out to be 149 °C.

`CN(c1ccc(Cl)c2cc(-c3ncc(CO)s3)[nH]c12)S(=O)(=O)c1cccs1` displayed a melting point of 225 to 226 °C.

Turning to `CCOC(=O)C1(C(=O)OCC)Oc2ccc(CN/C=C3\C(=O)NC(=O)c4ccc(Br)cc43)cc2O1`, the melting point was 222 to 223 °C.

For the compound `CCCCOCCCOCCCCCCNCC(O)c1cc(Cl)c(N)c(Cl)c1` (stereo not drawn), the melting point was 49 to 51 °C.

The compound `O=C1CC2(CCO1)c1ccccc1Oc1ccccc12` had a melting point of 156 to 159 °C.

The compound `CSC1C(=O)Nc2c(Nc3ccccc3)cccc21` (stereo not drawn) returned a melting point of 174 to 176 °C.

As to `C#CCOc1ccc2c(C)cc(=O)oc2c1C(=O)C=Cc1cc(OC)c(OC)c(OC)c1`, the melting point lay within 191 to 193 °C.

Take `CCCCCCOC(=O)c1nc2cc(Cl)ccc2o1`: the melting point is 42 to 43 °C.

`COc1cccc(NC(=O)c2cccs2)c1`: the melting point fell in the range of 139 to 145 °C.

Regarding `CCOC(=O)c1ccc(-c2nc(COc3ccc(CO)cc3OC)c(C)o2)o1`, the melting point is 105 to 106 °C.

In the case of `Cc1noc(NC(=O)N2CCN(c3cc(-c4ccccc4F)ncn3)CC2)c1C`, the melting point was 189 to 190 °C.

For `CCCCCc1ccc(-c2nc(C)c(C(C)=NNC(=N)N)s2)cc1`, the melting point stood at 210 °C.

As to `CCc1nc2c(C(F)(F)F)cccc2c(O)c1C(=O)O`, the melting point came to 174 °C.

`O=C1NC(=O)c2cc(Nc3ccc(O)c(O)c3)c(Nc3ccccc3)cc21` showed a melting point of 204 to 205 °C.

As for `CCC(Oc1ccc(C(C)(C)CC(C)(C)C)cc1)C(=O)Nc1ccc(Cl)c(Nc2cc(=O)n(-c3c(Cl)cc(Cl)cc3Cl)[nH]2)c1` (stereo not drawn), the melting point was in the range of 163 to 165 °C.

`COc1cc(OC)c2c(=O)[nH]c(-c3ccc(OCC(N)=O)cc3)nc2c1` gave a melting point of 309 to 311 °C.

With `CC12CCC(C(=O)O)=CC1=CCC1C2CCC2(C)C(C(=O)N(C(=O)NC3CCCCC3)C3CCCCC3)CCC12` (stereo not drawn), the melting point is 253 to 255 °C.

Turning to `CC(C(=O)N(C)C)n1nc(-c2ccccc2)c2c1CCCC2` (stereo not drawn), the melting point is 101 to 103 °C.

The compound `COC(=O)COCc1cc(Br)ccc1C(=O)OC` returned a melting point of 60 to 62 °C.

Regarding `N#Cc1c(N)ncc2c1-c1ccccc1C(c1ccc(Cl)cc1Cl)C2` (stereo not drawn), the melting point was 282 to 284 °C.

In the case of `O=C(Oc1ccc(Cl)cc1)n1c2c(c(=O)n(C3CCCCO3)c1=O)CCC2` (stereo not drawn), the melting point was determined as 126 °C.

Turning to `C#Cc1c2c3c(cccc3n1C)C1CC(NC(=O)N(CC)CC)CN(C)C1C2` (stereo not drawn), the melting point worked out at 126 °C.

The compound `CC(C)n1nccc1-c1nn(-c2cccc(C(F)(F)F)c2)ccc1=O` gave a melting point of 183 to 184 °C.

Compound `CC(CC(=O)O)C(=O)c1ccc(N2CCOCC2)c([N+](=O)[O-])c1` (stereo not drawn) returned a melting point of 127 to 129 °C.

Take `COc1cccc2c1nc(C(F)F)n2-c1nc(Nc2cccnc2)nc(N2CCOCC2)n1`: the melting point was in the range of 221 to 223 °C.

The compound `c1ccc(-n2cc3c(n2)-n2cccc2C3(Cc2ccncc2)Cc2ccncc2)cc1` showed a melting point of 169 to 170 °C.

On to `CCCCCCCC(=O)NCc1ccsc1`, for which the melting point was 71 to 72 °C.

Consider `NC1SC=CN1Sc1ccc(F)cc1F` (stereo not drawn), for which the melting point was in the range of 116 to 117 °C.

`CC1(C)Oc2ccc([N+](=O)[O-])cc2C2OC21` (stereo not drawn) had a melting point of 91 to 93 °C.

Compound `COc1cccc2c1Oc1ccc(C(=O)OC(C)C)cc1NC2` yielded a melting point of 110 °C.

Compound `CC(Oc1ccc2c(c1)C(O)C(Oc1cccnc1)CO2)c1ccc2ccccc2n1` (stereo not drawn) registered a melting point of 75 to 83 °C.

`CCCNC1=NS(=O)(=O)c2sc(Cl)cc2N1` gave a melting point of 258 to 261 °C.

`Cn1c(-c2ccc(F)cc2)cc(=O)c(C(=O)O)c1-c1ccc(F)cc1` displayed a melting point of 191 to 193 °C.

Regarding `O=C(NCCc1cccc2ccccc12)C1CC1`, the melting point fell in the range of 117 to 118 °C.

Turning to `Cc1ccc(OC(Cc2ccc(OCCNC(=O)c3ccc(-c4ccccn4)cc3)cc2)C(=O)O)cc1` (stereo not drawn), the melting point is 129 to 131 °C.

In turn, `CC(C)(C(=O)NC(Nc1c(Nc2cccnc2)c(=O)c1=O)C(C)(C)C)c1ccccc1` (stereo not drawn) registered a melting point of 247 to 248 °C.

For the compound `CCN1CC(=O)N(CC)c2cc(Nc3ncc(Cl)c(Nc4ccccc4S(=O)(=O)N(C)C)n3)c(OC)cc2C1`, the melting point was in the range of 195 to 197 °C.

`Cc1nc(C(=O)NCCO[N+](=O)[O-])co1`: the melting point fell in the range of 106 to 108 °C.

For the compound `C#Cc1cnc2ccc(OC(SC)C(=O)NC(C)(C#C)CO)cc2c1` (stereo not drawn), the melting point was in the range of 149 to 150 °C.

As for `CC(=O)Nc1ccc2c(c1)cc(C(=O)O)n2Cc1ccc(Cl)c(Cl)c1`, the melting point was 245 to 246 °C.

Consider `Cc1ccc(NC(=O)c2ccc(CN3CCN(CCO)CC3)c(C(F)(F)F)c2)cc1Nc1nccc(-c2cncnc2)n1`, for which the melting point was in the range of 188 to 192 °C.

In turn, `Cc1n[nH]c(C)c1Oc1cc(Cl)cc(Cl)c1` gave a melting point of 85 to 87 °C.

`OCC(O)CNCC(O)C(O)C(O)C(O)CO` (stereo not drawn) came in with a melting point of 133 to 134 °C.

Compound `CC12CCC3c4ccc(O)cc4C(=O)C(Sc4ccc(Br)cc4)C3C1CCC2O` (stereo not drawn) gave a melting point of 190 to 194 °C.

On to `Clc1cccc(Cl)c1-c1nc(-c2ccccc2)c(-c2ccccc2)[nH]1`, for which the melting point was 125 to 127 °C.

For `CCc1nc(/C=C/c2cccc(O)c2)sc1C`, the melting point is 161 to 162 °C.

Turning to `CCOC(=O)c1[nH]c2c(C)ccc(Cl)c2c1C`, the melting point was in the range of 118 to 119 °C.

For `CC(O)=C(C#N)C(=O)Nc1ccc(OC(F)(F)F)c(Br)c1`, the melting point fell in the range of 178 to 179 °C.

`CC(=O)Oc1ccc(-n2c(-c3ccccc3)cc3c2CCc2ccccc2-3)cc1C(=O)O` returned a melting point of 194 to 196 °C.

As for `Cc1ccc(SN(C)C(=O)Oc2cccc3c2OC(C)(C)C3)cc1`, the melting point is 62 °C.

In the case of `CCn1ncc2nc(C(=O)Nc3nccs3)c(-c3ccccc3)nc21`, the melting point was 194 to 196 °C.

The compound `COC(=O)Nc1nc2cc(S(=O)CC3(C)CC3(Cl)Cl)ccc2[nH]1` (stereo not drawn) gave a melting point of 231 to 233 °C.
